Data taken from patent US7109234B2, “Benzoxathiepine derivatives and their use as medicines” (Pierre Fabre Medicament, priority 2001, dated 2006).
pIC50: −log10 of the molar value. Structures can show the parent of a compound that is named as a salt.

System: rat isolated left atrium
Assay: Inhibition of the veratrine-induced contraction of the rat isolated left atrium
Format: cell-based
Settings: rat isolated left atrium, veratrine 100 μg/ml, product added 15 min before; read-out: Contraction with veratrine Inhibition IC50

| pIC50 | Compound |
| --- | --- |
| < 5.00 | CC(C)NCC(O)COc1ccc(CC(N)=O)cc1 (stereo not drawn) [Atenolol, atenolol] |

Same assay, conditions: stated in words

| Compound | in vitro activity (contraction with veratrine) |
| --- | --- |
| CC(C)NCC(O)COc1ccc(CC(N)=O)cc1 (stereo not drawn) [Atenolol, atenolol] | inactive |

System: New Zealand rabbits
Assay: Occlusion-reperfusion model in the anesthetized animal (ECG ST segment, arterial pressure, heart rate)
Format: in vivo, rabbit
Settings: 2.5 mg/kg p.o., anesthetized rabbit
Experimental: Thus, the compounds of the invention are capable of normalizing the electrical disturbances of the ECG brought about by a regional ischemia followed by a reperfusion, this being achieved without a significant effect on the hemodynamic parameters. The test in question is carried out according to the technique described in J. Cardiovasc. Pharmacol., 1995, 25, 126 according to the following protocol.
Male New Zealand rabbits (Elévage des Dombes, Romans, Chatillon-sur-Chalaronne, France) weighing 2.2 to 2.7 kg are used. The animals are placed in quarantine for 4 to 8 days with free access to standardized laboratory food before they are used in the experiments. The animals are housed individually. Water filtered through a 0.22 μm filter is freely available from an automatic dispenser. The quarantine area and the experimental laboratory are air-conditioned (temperature: 20±3° C.; relative humidity: 55±5%) and are illuminated from 7 a.m. to 7 p.m. All the animals are treated according to the code of ethics for laboratory animals (Guide for the Care and Use of Laboratory Animals, […], Public Health Service, National Institutes of Health publication No. 85-23, Revised 1985) and the protocol (No. 28) is carried out in accordance with the recommendations of the local research animals ethics committee. The animals are anesthetized using sodium pentobarbital (60 mg/kg) administered intravenously (i.v.) via a catheter positioned in the vein of the ear. The animals are instrumented with respiratory assistance (683 rodent/small animal ventilator, Havard Apparatus, Les Ulis, France). The gas mixture inhaled is enriched in oxygen. The respiratory rhythm, the flow volume and the percentage of oxygen in the gas mixture are adjusted so as to keep the gases in the blood within physiological limits. A polyethylene catheter, introduced into the carotid artery, is used both for the measurements of arterial pressure and to take the samples intended for the analysis of the blood gases (ABL 510, Radiometer, Copenhagen, Denmark). Anesthesia is maintained by injections of sodium pentobarbital as required. The body temperature of the animals is kept at 38–39° C. throughout the duration of the experiment using a heating blanket (Homothermic Blanket, Havard Apparatus). The various catheters are rinsed using a sterile saline solution (0.9%) comprising heparin (150 U.I./ml). The ECG (DII derivation) is recorded in order to measure the variations in the heart rate (RR interval) and in the amplitude of the ST segment. The arterial pressure is digitized and analyzed simultaneously (Dataflow®, Crystal Biotech, Northboro, Mass.). The thorax of the animal is opened at the fourth intercostal space and the pericardium is incised so as to reveal the left coronary artery. A ligature (Vicryl®, 5/0, Ethicon, Paris, France) is passed under this artery. After examining the ECG in order to detect any signs of myocardial lesions (persistent rise of the ST segment above 0.25 mV), a period of stabilization lasting 30 min is systematically observed. Any animal showing a possible myocardial lesion is excluded from the study. The test compound or the vehicle is administered per os (p.o.), as a 1% solution in methyl-cellulose, in a proportion of 1 ml/kg via a gastric tube made of flexible rubber. Anesthesia is produced 60 min after administration of the test compound or of the vehicle. The main coronary artery is then ligated for 10 min, i.e. 60 min after anesthesia, the tension in the ligature is subsequently relaxed completely for 10 min and then reestablished at the end of the procedure. The heart is excised and perfused using a formaldehyde solution (10%). The surface not fixed by the formaldehyde is regarded as the surface at risk.
The parameters measured in the experiment are: • the systolic and diastolic arterial pressure; • the heart rate (measured from the RR intervals); • the amplitude of the ST segment. […]

| Compound | Arterial pressure % variation [%] | Heart rate % variation [%] |
| --- | --- | --- |
| CC(C)NCC(O)COc1ccc(CC(N)=O)cc1 (stereo not drawn) [Atenolol, atenolol] | −9 | −13 |

Same assay, conditions: 2.5 mg/kg p.o., anesthetized rabbit, coronary occlusion-reperfusion

| Compound | ST segment % inhibition at 2.5 mg/kg p.o. [%] |
| --- | --- |
| CC(C)NCC(O)COc1ccc(CC(N)=O)cc1 (stereo not drawn) [Atenolol, atenolol] | 49 |

Same assay, conditions: stated in words; 2.5 mg/kg by the oral route

| Compound | in vivo activity (inhibition of the raising of the ST segment) |
| --- | --- |
| CC(C)NCC(O)COc1ccc(CC(N)=O)cc1 (stereo not drawn) [Atenolol, atenolol] | active |

System: not given
Assay: not given
Settings: not given

| melting point [°C] | Compound |
| --- | --- |
| 148 | COc1ccccc1SC[C@@H](C)CN[C@@H]1COc2ccc(C)cc2SC1 (as salt: maleate) [Compound 1-14, 3-(R)-[3-(2-Methoxyphenylthio)-2-(S)-methylpropyl]amino-7-methyl-3,4-dihydro-2H-1,5-benzoxathiepine] |
| 111 to 113 | COc1ccccc1SC[C@@H](C)CN[C@@H]1COc2cccc(C)c2SC1 (as salt: maleate) [Compound 1-15, 3-(R)-[3-(2-Methoxyphenylthio)-2-(S)-methylpropyl]amino-6-methyl-3,4-dihydro-2H-1,5-benzoxathiepine] |
| 116 to 118 | C[C@@H](CN[C@@H]1COc2ccccc2SC1)CSc1cccc2c1OCC2 (as salt: maleate) [Compound 1-16, 3-(R)-[3-(2,3-Dihydrobenzofuran-7-thio)-2-(S)-methylpropyl]amino-3,4-dihydro-2H-1,5-benzoxathiepine] |
| 124 to 126 | Cc1cccc(SC[C@@H](C)CN[C@@H]2COc3ccccc3SC2)c1O (as salt: maleate) [Compound 1-17, 3-(R)-[3-(2-Hydroxy-3-methylphenylthio)-2-(S)-methylpropyl]amino-3,4-dihydro-2H-1,5-benzoxathiepine] |
| 119 to 121 | C[C@@H](CN[C@@H]1COc2ccccc2SC1)CSc1ccccc1O (as salt: maleate) [Compound 1-18, 3-(R)-[3-(2-Hydroxyphenylthio)-2-(S)-methylpropyl]amino-3,4-dihydro-2H-1,5-benzoxathiepine] |
| 120 | CCc1cccc(SC[C@@H](C)CN[C@@H]2COc3ccccc3SC2)c1O (as salt: maleate) [Compound 1-19, 3-(R)-[3-(2-Hydroxy-3-ethylphenylthio)-2-(S)-methylpropyl]amino-3,4-dihydro-2H-1,5-benzoxathiepine] |
| 111 to 112 | CC[C@@H](CN[C@@H]1COc2ccccc2SC1)CSc1cccc(C)c1O (as salt: maleate) [Compound 1-20, 3-(R)-[3-(2-Hydroxy-3-methylphenylthio)-2-(S)-ethylpropyl]amino-3,4-dihydro-2H-1,5-benzoxathiepine] |
| 127 | Cc1cccc(SC[C@H](CN[C@@H]2COc3ccccc3SC2)C(C)C)c1O (as salt: maleate) [Compound 1-21, 3-(R)-[3-(2-Hydroxy-3-methylphenylthio)-2-(S)-(isopropyl)propyl]amino-3,4-dihydro-2H-1,5-benzoxathiepine] |
| 137 to 139 | COc1cccc(SC[C@@H](C)CN[C@@H]2COc3ccccc3SC2)c1O (as salt: maleate) [Compound 1-23, 3-(R)-[3-(2-Hydroxy-3-methoxyphenylthio)-2-(S)-methylpropyl]amino-3,4-dihydro-2H-1,5-benzoxathiepine] |
| 117 to 119 | COc1cccc(SC[C@@H](C)CN[C@@H]2COc3ccccc3SC2)c1OC (as salt: maleate) [Compound 1-24, 3-(R)-[3-(2,3-Dimethoxyphenylthio)-2-(S)-methylpropyl]amino-3,4-dihydro-2H-1,5-benzoxathiepine] |
| 126 | CC(C)c1cccc(SC[C@@H](C)CN[C@@H]2COc3ccccc3SC2)c1O (as salt: maleate) [Compound 1-25, 3-(R)-[3-(2-Hydroxy-3-(isopropyl)phenylthio)-2-(S)-methylpropyl]amino-3,4-dihydro-2H-1,5-benzoxathiepine] |
| 153 to 154 | Cc1cccc(O)c1SC[C@@H](C)CN[C@@H]1COc2ccccc2SC1 (as salt: maleate) [Compound 1-26, 3-(R)-[3-(2-Hydroxy-6-methylphenylthio)-2-(S)-methylpropyl]amino-3,4-dihydro-2H-1,5-benzoxathiepine] |
| 176 to 177 | Oc1ccccc1SC[C@@H](O)CN[C@@H]1COc2ccccc2SC1 (as salt: oxalate) [Compound 1-3, 3-(R)-[3-(2-Hydroxyphenylthio)-2-(S)-hydroxypropyl]amino-3,4-dihydro-2H-1,5-benzoxathiepine] |
| 135 | Oc1ccccc1SC[C@H](O)CN[C@@H]1COc2ccccc2SC1 (as salt: oxalate) [Compound 1-4, 3-(R)-[3-(2-Hydroxyphenylthio)-2-(R)-hydroxypropyl]amino-3,4-dihydro-2H-1,5-benzoxathiepine] |

The remaining lines, values behind:

| Compound | melting point [°C] |
| --- | --- |
| CC[C@@H](CN[C@@H]1COc2ccccc2SC1)CSc1ccccc1OC (as salt: fumarate) [Compound 1-9, 3-(R)-[3-(2-Methoxyphenylthio)-2-(S)-ethylpropyl]amino-3,4-dihydro-2H-1,5-benzoxathiepine] | 86 to 88 |
| COc1ccccc1SC[C@H](CN[C@@H]1COc2ccccc2SC1)OC (as salt: maleate) [Compound 1-1, 3-(R)-[3-(2-Methoxyphenylthio)-2-(S)-methoxypropyl]amino-3,4-dihydro-2H-1,5-benzoxathiepine] | 122 |
| COc1ccccc1SC[C@@H](CN[C@@H]1COc2ccccc2SC1)OC (as salt: maleate) [Compound 1-2, 3-(R)-[3-(2-Methoxyphenylthio)-2-(R)-methoxypropyl]amino-3,4-dihydro-2H-1,5-benzoxathiepine] | 116 |
| COc1ccccc1SC[C@@H](O)CN[C@@H]1COc2ccccc2SC1 (as salt: maleate) [Compound 1-5, 3-(R)-[3-(2-Methoxyphenylthio)-2-(S)-hydroxypropyl]amino-3,4-dihydro-2H-1,5-benzoxathiepine] | 133 to 135 |
| COc1ccccc1SC[C@H](O)CN[C@@H]1COc2ccccc2SC1 (as salt: maleate) [Compound 1-6, 3-(R)-[3-(2-Methoxyphenylthio)-2-(R)-hydroxypropyl]amino-3,4-dihydro-2H-1,5-benzoxathiepine] | 136 to 138 |
| CC[C@H](CN[C@@H]1COc2ccccc2SC1)CSc1ccccc1OC (as salt: maleate) [Compound 1-10, 3-(R)-[3-(2-Methoxyphenylthio)-2-(R)-ethylpropyl]amino-3,4-dihydro-2H-1,5-benzoxathiepine] | 140 |
| CCC[C@@H](CN[C@@H]1COc2ccccc2SC1)CSc1ccccc1OC (as salt: maleate) [Compound 1-11, 3-(R)-[3-(2-Methoxyphenylthio)-2-(S)-(n-propyl)propyl]amino-3,4-dihydro-2H-1,5-benzoxathiepine] | 132 to 133 |
| CCC[C@H](CN[C@@H]1COc2ccccc2SC1)CSc1ccccc1OC (as salt: maleate) [Compound 1-12, 3-(R)-[3-(2-Methoxyphenylthio)-2-(R)-(n-propyl)propyl]amino-3,4-dihydro-2H-1,5-benzoxathiepine] | 131 to 133 |
| COc1ccccc1SC[C@H](CN[C@@H]1COc2ccccc2SC1)C(C)C (as salt: maleate) [Compound 1-13, 3-(R)-[3-(2-Methoxyphenylthio)-2-(S)-(isopropyl)propyl]amino-3,4-dihydro-2H-1,5-benzoxathiepine] | 114 to 115 |
| Cc1cccc(SC[C@@H](C)CN[C@@H]2COc3cccc(C)c3SC2)c1O (as salt: maleate) [Compound 1-22, 3-(R)-[3-(2-Hydroxy-3-methylphenylthio)-2-(S)-methylpropyl]amino-6-methyl-3,4-dihydro-2H-1,5-benzoxathiepine] | 108 to 109 |
